# Results published in the kinase profiling compilation of Christmann-Franck et al. (2016).
# Columns and labels:
# Assay in all cases: radiometric filter-binding kinase assay
# EPHB2 (human) = EPHB2 (human) (UniProt P29323); settings: compound 10.0 µM
# RPS6KA1 KD1 KD2 (human) = RPS6KA1 KD1 KD2 (human) (UniProt Q15418)
# PAK7 (human) = PAK7 (human) (UniProt Q9P286); settings: compound 10.0 µM
# MAPK1 (human) = MAPK1 (human) (UniProt P28482)
# MAPK13 (human) = MAPK13 (human) (UniProt O15264)
# HIPK2 (human) = HIPK2 (human) (UniProt Q9H2X6); settings: compound 10.0 µM
# [1] = tested on: SGK1 (human), O00141 [S422D]
# PRKACA (human) = PRKACA (human) (UniProt P17612)
# SYK (human) = SYK (human) (UniProt P43405); settings: compound 10.0 µM
# DYRK2 (human) = DYRK2 (human) (UniProt Q92630); settings: compound 10.0 µM
# CHEK2 (human) = CHEK2 (human) (UniProt O96017); settings: compound 10.0 µM
# NUAK1 (human) = NUAK1 (human) (UniProt O60285); settings: compound 10.0 µM
# MAP3K11 (human) = MAP3K11 (human) (UniProt Q16584); settings: compound 10.0 µM
# BRSK2 (human) = BRSK2 (human) (UniProt Q8IWQ3); settings: compound 10.0 µM
# EPHB3 (human) = EPHB3 (human) (UniProt P54753); settings: compound 10.0 µM
# IKBKE (human) = IKBKE (human) (UniProt Q14164); settings: compound 10.0 µM
# NEK2 (human) = NEK2 (human) (UniProt P51955)
# MARK2 (human) = MARK2 (human) (UniProt Q7KZI7); settings: compound 10.0 µM
# MKNK1 (human) = MKNK1 (human) (UniProt Q9BUB5); settings: compound 10.0 µM
# AURKA (human) = AURKA (human) (UniProt O14965); settings: compound 10.0 µM
# DYRK1A (human) = DYRK1A (human) (UniProt Q13627)
# MAPK10 (human) = MAPK10 (human) (UniProt P53779); settings: compound 10.0 µM
# PAK4 (human) = PAK4 (human) (UniProt O96013); settings: compound 10.0 µM
# MST4 (human) = MST4 (human) (UniProt Q9P289); settings: compound 10.0 µM
# PRKCA (human) = PRKCA (human) (UniProt P17252)
# ERBB4 (human) = ERBB4 (human) (UniProt Q15303); settings: compound 10.0 µM
# MAPK3 (human) = MAPK3 (human) (UniProt P27361); settings: compound 10.0 µM
# MAPKAPK3 (human) = MAPKAPK3 (human) (UniProt Q16644); settings: compound 10.0 µM
# PRKAA1 or PRKAA2 (rat) = settings: accession and sequence are those of the human protein
# MAPK12 (human) = MAPK12 (human) (UniProt P53778)
# CaMK1 (human) = CaMK1 (human) (UniProt Q14012); settings: compound 10.0 µM
# MAPK8 (human) = MAPK8 (human) (UniProt P45983)
# [2] = tested on: AKT1 (human), P31749 [S473D]
# MAP2K6 (human) = MAP2K6 (human) (UniProt P52564); settings: compound 10.0 µM
# PLK1 (human) = PLK1 (human) (UniProt P53350); settings: compound 10.0 µM
# Chain of MAPK12 (human) (P53778 whole entry, looked up): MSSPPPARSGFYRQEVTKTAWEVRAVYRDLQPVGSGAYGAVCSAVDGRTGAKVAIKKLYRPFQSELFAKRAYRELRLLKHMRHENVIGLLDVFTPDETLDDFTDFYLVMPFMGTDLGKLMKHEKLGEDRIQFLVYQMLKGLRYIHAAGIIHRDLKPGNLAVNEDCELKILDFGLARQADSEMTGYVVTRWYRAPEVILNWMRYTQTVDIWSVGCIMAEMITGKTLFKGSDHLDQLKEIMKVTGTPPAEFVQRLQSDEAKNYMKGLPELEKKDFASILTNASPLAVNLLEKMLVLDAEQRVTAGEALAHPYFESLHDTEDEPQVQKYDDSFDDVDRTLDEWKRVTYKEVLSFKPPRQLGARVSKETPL
# Chain of AKT1 (human), P31749 [S473D] (P31749 whole entry S473D, looked up): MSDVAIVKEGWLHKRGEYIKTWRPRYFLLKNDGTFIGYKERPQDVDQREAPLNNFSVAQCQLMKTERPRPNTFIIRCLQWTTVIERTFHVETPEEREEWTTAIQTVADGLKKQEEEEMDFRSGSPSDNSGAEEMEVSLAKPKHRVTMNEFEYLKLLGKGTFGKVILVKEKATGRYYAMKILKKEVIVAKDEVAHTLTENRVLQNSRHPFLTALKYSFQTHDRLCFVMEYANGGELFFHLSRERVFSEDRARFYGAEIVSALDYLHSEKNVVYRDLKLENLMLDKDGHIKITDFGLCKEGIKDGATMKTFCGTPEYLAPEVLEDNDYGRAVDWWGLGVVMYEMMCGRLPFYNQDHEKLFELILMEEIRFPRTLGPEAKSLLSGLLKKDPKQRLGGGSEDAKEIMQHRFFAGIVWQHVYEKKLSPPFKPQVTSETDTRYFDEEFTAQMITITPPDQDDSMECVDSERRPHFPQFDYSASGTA
# Chain of MAPK13 (human) (O15264 whole entry, looked up): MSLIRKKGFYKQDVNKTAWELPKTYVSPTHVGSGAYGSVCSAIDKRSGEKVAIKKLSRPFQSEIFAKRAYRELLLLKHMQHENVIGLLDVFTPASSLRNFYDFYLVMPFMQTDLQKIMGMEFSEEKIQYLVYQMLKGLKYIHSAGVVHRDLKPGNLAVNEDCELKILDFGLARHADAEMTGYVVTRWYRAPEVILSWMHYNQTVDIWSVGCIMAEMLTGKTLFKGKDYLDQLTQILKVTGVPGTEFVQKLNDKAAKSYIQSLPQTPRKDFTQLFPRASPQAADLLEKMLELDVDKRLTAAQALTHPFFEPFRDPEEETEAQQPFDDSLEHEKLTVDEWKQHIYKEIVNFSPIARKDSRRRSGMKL
# Chain of MAPK1 (human) (P28482 whole entry, looked up): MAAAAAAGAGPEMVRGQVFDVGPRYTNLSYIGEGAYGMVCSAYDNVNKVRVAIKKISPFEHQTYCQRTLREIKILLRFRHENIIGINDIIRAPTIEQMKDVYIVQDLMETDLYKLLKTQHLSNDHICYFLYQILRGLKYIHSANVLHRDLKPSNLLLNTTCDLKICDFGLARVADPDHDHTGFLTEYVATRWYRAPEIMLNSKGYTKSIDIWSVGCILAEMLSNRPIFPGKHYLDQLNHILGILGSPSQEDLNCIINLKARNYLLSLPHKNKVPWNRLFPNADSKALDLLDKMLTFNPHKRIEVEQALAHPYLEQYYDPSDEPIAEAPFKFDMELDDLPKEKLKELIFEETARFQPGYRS
# Chain of RPS6KA1 KD1 KD2 (human) (Q15418 whole entry, looked up): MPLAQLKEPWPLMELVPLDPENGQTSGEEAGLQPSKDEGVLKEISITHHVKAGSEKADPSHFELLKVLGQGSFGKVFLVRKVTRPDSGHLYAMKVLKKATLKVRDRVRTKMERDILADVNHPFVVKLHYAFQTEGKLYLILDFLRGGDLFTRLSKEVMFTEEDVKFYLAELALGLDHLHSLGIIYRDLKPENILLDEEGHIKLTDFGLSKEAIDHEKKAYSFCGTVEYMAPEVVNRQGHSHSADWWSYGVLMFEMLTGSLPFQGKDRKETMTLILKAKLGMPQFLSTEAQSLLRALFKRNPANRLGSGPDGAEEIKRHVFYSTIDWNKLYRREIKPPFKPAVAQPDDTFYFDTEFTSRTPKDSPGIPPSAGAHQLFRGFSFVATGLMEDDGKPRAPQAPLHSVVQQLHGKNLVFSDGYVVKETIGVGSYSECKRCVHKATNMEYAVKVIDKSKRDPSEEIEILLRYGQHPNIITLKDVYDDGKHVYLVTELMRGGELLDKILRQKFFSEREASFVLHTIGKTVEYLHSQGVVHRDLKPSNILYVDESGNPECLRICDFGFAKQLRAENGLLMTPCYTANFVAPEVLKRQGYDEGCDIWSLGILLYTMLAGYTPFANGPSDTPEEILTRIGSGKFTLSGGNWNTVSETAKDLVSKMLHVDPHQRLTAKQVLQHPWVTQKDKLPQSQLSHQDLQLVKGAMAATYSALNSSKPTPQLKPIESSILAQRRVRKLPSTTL
# Chain of SGK1 (human), O00141 [S422D] (O00141 whole entry S422D, looked up): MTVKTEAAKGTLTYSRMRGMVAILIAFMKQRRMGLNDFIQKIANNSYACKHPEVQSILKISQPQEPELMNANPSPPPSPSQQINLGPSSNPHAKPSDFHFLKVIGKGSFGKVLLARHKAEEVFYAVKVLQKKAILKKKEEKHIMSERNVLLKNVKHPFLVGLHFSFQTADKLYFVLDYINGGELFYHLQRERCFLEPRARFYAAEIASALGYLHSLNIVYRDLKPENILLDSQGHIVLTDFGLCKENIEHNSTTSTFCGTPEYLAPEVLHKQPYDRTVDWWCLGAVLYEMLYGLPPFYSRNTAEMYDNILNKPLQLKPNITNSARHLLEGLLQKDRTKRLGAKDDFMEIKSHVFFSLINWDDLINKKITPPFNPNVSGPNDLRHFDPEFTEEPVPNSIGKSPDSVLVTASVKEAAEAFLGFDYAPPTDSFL
# Chain of MAPK8 (human) (P45983 whole entry, looked up): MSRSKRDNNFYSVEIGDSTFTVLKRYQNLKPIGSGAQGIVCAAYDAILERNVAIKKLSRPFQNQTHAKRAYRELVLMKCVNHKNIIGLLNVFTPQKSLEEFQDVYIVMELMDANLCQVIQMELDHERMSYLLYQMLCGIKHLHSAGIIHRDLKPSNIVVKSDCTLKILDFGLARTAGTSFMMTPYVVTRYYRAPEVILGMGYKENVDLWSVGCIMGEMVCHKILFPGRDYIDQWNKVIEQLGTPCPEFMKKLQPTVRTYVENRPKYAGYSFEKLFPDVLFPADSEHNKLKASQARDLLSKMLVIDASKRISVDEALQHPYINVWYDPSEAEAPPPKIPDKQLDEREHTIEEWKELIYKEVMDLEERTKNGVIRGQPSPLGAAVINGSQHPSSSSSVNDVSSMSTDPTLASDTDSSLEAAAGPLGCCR
# Chain of NEK2 (human) (P51955 whole entry, looked up): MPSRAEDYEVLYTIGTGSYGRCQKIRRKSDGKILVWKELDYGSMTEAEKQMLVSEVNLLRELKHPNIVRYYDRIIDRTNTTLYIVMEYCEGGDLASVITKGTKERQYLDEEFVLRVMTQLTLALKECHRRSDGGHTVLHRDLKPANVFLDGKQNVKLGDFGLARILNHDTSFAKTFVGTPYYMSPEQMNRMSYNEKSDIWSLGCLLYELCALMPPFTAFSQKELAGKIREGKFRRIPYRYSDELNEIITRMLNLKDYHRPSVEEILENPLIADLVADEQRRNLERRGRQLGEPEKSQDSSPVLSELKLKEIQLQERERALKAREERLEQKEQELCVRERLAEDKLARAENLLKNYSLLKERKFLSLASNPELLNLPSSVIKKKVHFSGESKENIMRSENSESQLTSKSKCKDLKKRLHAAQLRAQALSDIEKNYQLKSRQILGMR
# Chain of MAP2K6 (human) (P52564 whole entry, looked up): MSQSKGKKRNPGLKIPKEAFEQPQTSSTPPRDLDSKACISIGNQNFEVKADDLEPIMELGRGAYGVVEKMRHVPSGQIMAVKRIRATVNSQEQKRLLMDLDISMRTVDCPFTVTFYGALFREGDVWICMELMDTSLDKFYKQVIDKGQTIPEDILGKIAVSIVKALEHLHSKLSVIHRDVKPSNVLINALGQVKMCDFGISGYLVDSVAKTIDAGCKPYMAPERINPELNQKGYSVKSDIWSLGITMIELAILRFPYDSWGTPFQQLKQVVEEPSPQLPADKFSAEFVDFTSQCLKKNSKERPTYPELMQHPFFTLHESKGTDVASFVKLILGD
smiles,measurement,setting,value
Cc1ccc2c(c1)C(=O)[C@@]1(O)CCN(c3ccccc3)C1=N2,residual activity,EPHB2 (human),116%
same,residual activity,RPS6KA1 KD1 KD2 (human); compound 10.0 µM,76%
same,residual activity,RPS6KA1 KD1 KD2 (human); compound 100.0 µM,77%
same,residual activity,PAK7 (human),73%
same,residual activity,MAPK1 (human); compound 10.0 µM,91%
same,residual activity,MAPK1 (human); compound 100.0 µM,82%
same,residual activity,MAPK13 (human); compound 10.0 µM,81%
same,residual activity,MAPK13 (human); compound 100.0 µM,116%
same,residual activity,HIPK2 (human),98%
same,residual activity,[1]; compound 10.0 µM,101%
same,residual activity,[1]; compound 100.0 µM,60%
same,residual activity,PRKACA (human); compound 10.0 µM,101%
same,residual activity,PRKACA (human); compound 100.0 µM,70%
same,residual activity,SYK (human),105%
same,residual activity,DYRK2 (human),76%
same,residual activity,CHEK2 (human),100%
same,residual activity,NUAK1 (human),97%
same,residual activity,MAP3K11 (human),73%
same,residual activity,BRSK2 (human),98%
same,residual activity,EPHB3 (human),107%
same,residual activity,IKBKE (human),85%
same,residual activity,NEK2 (human); compound 10.0 µM,77%
same,residual activity,NEK2 (human); compound 100.0 µM,82%
same,residual activity,MARK2 (human),93%
same,residual activity,MKNK1 (human),97%
same,residual activity,AURKA (human),99%
same,residual activity,DYRK1A (human); compound 10.0 µM,97%
same,residual activity,DYRK1A (human); compound 100.0 µM,90%
same,residual activity,MAPK10 (human),99%
same,residual activity,PAK4 (human),90%
same,residual activity,MST4 (human),99%
same,residual activity,PRKCA (human); compound 10.0 µM,103%
same,residual activity,PRKCA (human); compound 100.0 µM,75%
same,residual activity,ERBB4 (human),87%
same,residual activity,MAPK3 (human),102%
same,residual activity,MAPKAPK3 (human),86%
same,residual activity,PRKAA1 or PRKAA2 (rat); compound 10.0 µM,92%
same,residual activity,PRKAA1 or PRKAA2 (rat); compound 100.0 µM,60%
same,residual activity,MAPK12 (human); compound 10.0 µM,99%
same,residual activity,MAPK12 (human); compound 100.0 µM,80%
same,residual activity,CaMK1 (human),74%
same,residual activity,MAPK8 (human); compound 10.0 µM,92%
same,residual activity,MAPK8 (human); compound 100.0 µM,78%
same,residual activity,[2]; compound 10.0 µM,95%
same,residual activity,[2]; compound 100.0 µM,88%
same,residual activity,MAP2K6 (human),94%
same,residual activity,PLK1 (human),99%
